Test results from publication PMC5421785, “Citrullination only infrequently impacts peptide binding to HLA class II MHC” (PLoS ONE, 2017).
Read-outs that look alike come from different tables or passages of the source. One block for each compound: values may come before it. Square brackets hold non-standard residues; d marks the D form. Ends that are not written are not given here. Peptide text beside a SMILES is read from it. Cit = NC(=O)NCCC[C@H](N)C(=O)O

Key:
HLA-DRB1*01:01 = molecular target: T1, HLA-DRB1*01:01 (Homo sapiens, UniProt P01903+P01911, A100R/D57E/F55L/F60I/F76Y/I96L/L162R/M171V/P40L/Q125E/R42F/V115G/Y59C); assay: HLA class II peptide binding, inhibition of radiolabeled peptide binding to purified MHC
T1 construct: EBV transformed homozygous cell lines were used as sources of MHC molecules; endogenous in cells; host or cells: EBV transformed homozygous cell lines

HLA-DRB1*04:01 = molecular target: T2, HLA-DRB1*04:01 (Homo sapiens, UniProt P01903+P01911, A100K/A169T/F76Y/I96L/K127E/L162R/M171V/N62H/P40V/Q125Y/R42H/S133A/S149N/S66Y/V115G/V209L/W38E); assay: as above
T2 construct: EBV transformed homozygous cell lines were used as sources of MHC molecules; endogenous in cells; host or cells: EBV transformed homozygous cell lines

[1] = citrullinated 15-mer (X), purified MHC, inhibition of radiolabeled peptide binding, dash = IC50 >40,000 nM, read-out: DRB1*01:01 binding capacity, Cit peptide (IC50 nM)
[2] = citrullinated 15-mer (X), purified MHC, inhibition of radiolabeled peptide binding, dash = IC50 >40,000 nM, read-out: DRB1*04:01 binding capacity, Cit peptide (IC50 nM)
[3] = wild-type (unmodified Arg) 15-mer peptide, purified HLA-DRB1*01:01, read-out: DRB1*01:01 binding capacity, WT peptide (IC50 nM)
[4] = wild-type (unmodified Arg) 15-mer peptide, purified HLA-DRB1*04:01, read-out: DRB1*04:01 binding capacity, WT peptide (IC50 nM)
[5] = citrullinated 15-mer peptide (X = citrulline), purified HLA-DRB1*01:01, read-out: DRB1*01:01 binding capacity, Cit peptide (IC50 nM)
[6] = citrullinated 15-mer peptide (X = citrulline), purified HLA-DRB1*04:01, read-out: DRB1*04:01 binding capacity, Cit peptide (IC50 nM)
[7] = read-out: DRB1*01:01 binding capacity, WT peptide (IC50 nM)
[8] = read-out: DRB1*04:01 binding capacity, WT peptide (IC50 nM)

Compound: LAGQRGIVGLPGQRG [Collagen 976 WT]
- IC50 (HLA-DRB1*01:01; [3]): 20 nM
- IC50 (HLA-DRB1*04:01; [4]): 9280 nM

Compound: GADGPPGRDGAAGVK [Collagen 1041 WT]
- IC50 (HLA-DRB1*01:01; [3]): > 40000 nM
- IC50 (HLA-DRB1*04:01; [4]): > 40000 nM

Compound: CC(C)C[C@H](NC(=O)CNC(=O)[C@@H](N)CC(=O)O)C(=O)N[C@@H](C)C(=O)NCC(=O)N1CCC[C@H]1C(=O)N[C@@H](CCCCN)C(=O)NCC(=O)N[C@@H](C)C(=O)N1CCC[C@H]1C(=O)NCC(=O)N[C@@H](CCC(=O)O)C(=O)N[C@@H](CCCNC(N)=O)C(=O)NCC(=O)N1CCC[C@H]1C(=O)O [DGLAGPKGAPGEXGP] (H-DGLAGPKGAPGE[Cit]GP-OH)
- IC50 (HLA-DRB1*01:01; [5]): 1120 nM
- IC50 (HLA-DRB1*04:01; [6]): > 40000 nM

Compound: CSCC[C@H](NC(=O)[C@@H](NC(=O)CNC(=O)[C@@H]1CCCN1C(=O)[C@H](CCC(N)=O)NC(=O)CNC(=O)[C@H](CCCNC(N)=O)NC(=O)[C@H](C)NC(=O)CNC(=O)[C@H](CCC(N)=O)NC(=O)[C@@H]1CCCN1C(=O)CN)C(C)C)C(=O)NCC(=O)N[C@@H](Cc1ccccc1)C(=O)N1CCC[C@H]1C(=O)O [GPQGAXGQPGVMGFP] (H-GPQGA[Cit]GQPGVMGFP-OH)
- IC50 (HLA-DRB1*01:01; [5]): 64 nM
- IC50 (HLA-DRB1*04:01; [6]): 14900 nM

Compound: CC(C)C[C@H](NC(=O)[C@H](CCCNC(=N)N)NC(=O)[C@H](C)N)C(=O)N[C@@H](CC(=O)O)C(=O)N[C@@H](CC(C)C)C(=O)N[C@@H](CCC(=O)O)C(=O)N[C@@H](CCCNC(N)=O)C(=O)N[C@@H](CCCCN)C(=O)N[C@H](C(=O)N[C@@H](CCC(=O)O)C(=O)N[C@@H](CO)C(=O)N[C@@H](CC(C)C)C(=O)N[C@@H](CCC(N)=O)C(=O)N[C@@H](CCC(=O)O)C(=O)N[C@@H](CCC(=O)O)C(=O)O)C(C)C [ARLDLEXKVESLQEE] (H-ARLDLE[Cit]KVESLQEE-OH)
- IC50 (HLA-DRB1*01:01; [1]): 1340 nM
- IC50 (HLA-DRB1*04:01; [2]): 12000 nM

Compound: TGPKGARGAQGPPGA [Collagen 881 WT]
- IC50 (HLA-DRB1*01:01; [3]): 17000 nM
- IC50 (HLA-DRB1*04:01; [4]): > 40000 nM

Compound: CC[C@H](C)[C@H](NC(=O)[C@H](C)N)C(=O)N[C@@H](CC(N)=O)C(=O)N[C@H](C(=O)N[C@@H](CCC(=O)O)C(=O)N[C@@H](Cc1ccccc1)C(=O)N[C@@H](CCCCN)C(=O)N[C@@H](CC(N)=O)C(=O)N[C@H](C(=O)N[C@@H](CCCNC(N)=O)C(=O)N[C@H](C(=O)N[C@@H](CC(N)=O)C(=O)N[C@@H](CCC(=O)O)C(=O)N[C@@H](CCCCN)C(=O)N[C@H](C(=O)O)C(C)C)[C@@H](C)O)[C@@H](C)O)[C@@H](C)O [AINTEFKNTXTNEKV] (H-AINTEFKNT[Cit]TNEKV-OH)
- IC50 (HLA-DRB1*01:01; [1]): 2370 nM
- IC50 (HLA-DRB1*04:01; [2]): 931 nM

Compound: PGPAGPTGKQGDRGE [Collagen 1076 WT]
- IC50 (HLA-DRB1*01:01; [3]): > 40000 nM
- IC50 (HLA-DRB1*04:01; [4]): > 40000 nM

Compound: GPQGARGQPGVMGFP [Collagen 591 WT]
- IC50 (HLA-DRB1*01:01; [3]): 44 nM
- IC50 (HLA-DRB1*04:01; [4]): 2570 nM

Results, then the compound that gave them:

- IC50 (HLA-DRB1*01:01; [1]): 12 nM
- IC50 (HLA-DRB1*04:01; [2]): 1550 nM
Compound: CC(C)C[C@H](NC(=O)[C@H](C)NC(=O)[C@H](CO)NC(=O)CN)C(=O)N[C@@H](CCCNC(N)=O)C(=O)N1CCC[C@H]1C(=O)N[C@@H](CO)C(=O)N[C@H](C(=O)N[C@@H](CO)C(=O)N[C@@H](CCCNC(=N)N)C(=O)N[C@@H](CO)C(=O)N[C@@H](CC(C)C)C(=O)N[C@@H](Cc1ccc(O)cc1)C(=O)N[C@@H](C)C(=O)N[C@@H](CO)C(=O)O)[C@@H](C)O [GSALXPSTSRSLYAS]

- IC50 (HLA-DRB1*01:01; [1]): 14800 nM
- IC50 (HLA-DRB1*04:01; [2]): > 40000 nM
Compound: CSCC[C@H](NC(=O)[C@H](CCC(=O)O)NC(=O)[C@H](CCC(=O)O)NC(=O)[C@H](CCC(=O)O)NC(=O)[C@H](Cc1ccc(O)cc1)NC(=O)[C@H](CC(C)C)NC(=O)[C@H](CC(=O)O)NC(=O)CNC(=O)[C@@H](N)CC(C)C)C(=O)N[C@@H](CCCNC(=N)N)C(=O)N[C@@H](CCC(=O)O)C(=O)N[C@@H](CC(C)C)C(=O)N[C@@H](CCCNC(=N)N)C(=O)N[C@@H](CCCNC(N)=O)C(=O)N[C@@H](CCC(N)=O)C(=O)O [LGDLYEEEMRELRXQ]

- IC50 (HLA-DRB1*01:01; [5]): 5110 nM
- IC50 (HLA-DRB1*04:01; [6]): 15500 nM
Compound: CC(C)C[C@H](NC(=O)[C@H](C)NC(=O)[C@H](CC(=O)O)NC(=O)[C@@H](NC(=O)[C@H](CCC(=O)O)NC(=O)[C@H](CS)NC(=O)[C@@H](NC(=O)[C@H](CC(C)C)NC(=O)[C@H](CO)NC(=O)[C@H](CCC(N)=O)NC(=O)[C@@H](NC(=O)[C@H](CCC(N)=O)NC(=O)[C@@H](N)CCCNC(N)=O)C(C)C)[C@@H](C)O)C(C)C)C(=O)N[C@@H](CCCCN)C(=O)NCC(=O)O [XQVQSLTCEVDALKG] (H-[Cit]QVQSLTCEVDALKG-OH)

- IC50 (HLA-DRB1*01:01; [1]): 229 nM
- IC50 (HLA-DRB1*04:01; [2]): 5660 nM
Compound: CC[C@H](C)[C@H](NC(=O)[C@H](Cc1ccc(O)cc1)NC(=O)[C@H](CC(N)=O)NC(=O)[C@H](C)NC(=O)[C@H](Cc1ccccc1)NC(=O)[C@H](CCCNC(=N)N)NC(=O)[C@H](CC(=O)O)NC(=O)[C@@H](N)CC(N)=O)C(=O)N[C@@H](CC(=O)O)C(=O)N[C@@H](CCCCN)C(=O)N[C@H](C(=O)N[C@@H](CCCNC(N)=O)C(=O)N[C@@H](Cc1ccccc1)C(=O)N[C@@H](CC(C)C)C(=O)N[C@@H](CCC(=O)O)C(=O)O)C(C)C [NDRFANYIDKVXFLE] (H-NDRFANYIDKV[Cit]FLE-OH)

- IC50 (HLA-DRB1*01:01; [1]): 0.7 nM
- IC50 (HLA-DRB1*04:01; [2]): 11 nM
Compound: CC(C)C[C@H](NC(=O)[C@H](CC(C)C)NC(=O)[C@H](CCCNC(=N)N)NC(=O)[C@@H](NC(=O)CNC(=O)[C@@H]1CCCN1C(=O)[C@@H](NC(=O)[C@H](CO)NC(=O)[C@H](CO)NC(=O)[C@H](CCCNC(N)=O)NC(=O)[C@H](CC(C)C)NC(=O)[C@H](CCCNC(=N)N)NC(=O)[C@@H](NC(=O)[C@H](C)NC(=O)[C@@H](N)CO)C(C)C)C(C)C)C(C)C)C(=O)O [SAVRLXSSVPGVRLL] (H-SAVRL[Cit]SSVPGVRLL-OH)

- IC50 (HLA-DRB1*01:01; [1]): 19 nM
- IC50 (HLA-DRB1*04:01; [2]): 1050 nM
Compound: CC(C)C[C@H](NC(=O)[C@H](CC(C)C)NC(=O)[C@H](CCCNC(=N)N)NC(=O)[C@@H](NC(=O)CNC(=O)[C@@H]1CCCN1C(=O)[C@@H](NC(=O)[C@H](CO)NC(=O)[C@H](CO)NC(=O)[C@H](CCCNC(=N)N)NC(=O)[C@H](CC(C)C)NC(=O)[C@H](CCCNC(N)=O)NC(=O)[C@@H](NC(=O)[C@H](C)NC(=O)[C@@H](N)CO)C(C)C)C(C)C)C(C)C)C(=O)O [SAVXLRSSVPGVRLL] (H-SAV[Cit]LRSSVPGVRLL-OH)

- IC50 (HLA-DRB1*01:01; [7]): 5230 nM
- IC50 (HLA-DRB1*04:01; [8]): 39500 nM
Compound: GGPGTASRPSSSRSY [Vimentin 16 WT]

- IC50 (HLA-DRB1*01:01; [7]): 5260 nM
- IC50 (HLA-DRB1*04:01; [8]): 144 nM
Compound: FRQDVDNASLARLDL [Vimentin 206 WT]

- IC50 (HLA-DRB1*01:01; [1]): 19600 nM
- IC50 (HLA-DRB1*04:01; [2]): 17100 nM
Compound: CC[C@H](C)[C@H](NC(=O)[C@H](CC(=O)O)NC(=O)[C@H](CCC(=O)O)NC(=O)[C@H](C)NC(=O)[C@H](CC(C)C)NC(=O)[C@H](CC(N)=O)NC(=O)[C@H](CC(=O)O)NC(=O)[C@H](CCCNC(=N)N)NC(=O)[C@H](CCC(=O)O)NC(=O)[C@@H](NC(=O)[C@H](CCC(=O)O)NC(=O)[C@@H](N)C(C)C)C(C)C)C(=O)N[C@@H](CCSC)C(=O)N[C@@H](CCCNC(N)=O)C(=O)N[C@@H](CC(C)C)C(=O)O [VEVERDNLAEDIMXL] (H-VEVERDNLAEDIM[Cit]L-OH)

- IC50 (HLA-DRB1*01:01; [7]): 394 nM
- IC50 (HLA-DRB1*04:01; [8]): 953 nM
Compound: YKSKFADLSEAANRN [Vimentin 291 WT]

- IC50 (HLA-DRB1*01:01; [1]): 7.2 nM
- IC50 (HLA-DRB1*04:01; [2]): 1480 nM
Compound: CC(C)C[C@H](NC(=O)[C@H](C)NC(=O)[C@H](CO)NC(=O)CNC(=O)[C@H](CC(C)C)NC(=O)[C@H](CO)NC(=O)[C@H](Cc1ccc(O)cc1)NC(=O)[C@@H](NC(=O)[C@H](CCCNC(N)=O)NC(=O)[C@@H](NC(=O)[C@H](CO)NC(=O)[C@@H](NC(=O)[C@@H](NC(=O)[C@@H](N)C(C)C)[C@@H](C)O)[C@@H](C)O)[C@@H](C)O)[C@@H](C)O)C(=O)N[C@@H](CCCNC(=N)N)C(=O)O [VTTSTXTYSLGSALR] (H-VTTST[Cit]TYSLGSALR-OH)
